One may read the IC50 as the concentration that inhibits the measured activity by half. The melting point is the temperature of the solid-liquid transition.

Molecules are shown by their SMILES.

Experimental findings from patent publication US9126984B2, “4-(indol-3-yl)-pyrazole derivatives, pharmaceutical compositions and methods for use” (ITEOS THERAPEUTICS, priority 2013, dated 2015) are described below.

The target in series [1] is T1, human recombinant TDO2 enzyme (Homo sapiens, UniProt P48775).
T1 construct: made in house
T1 sequence (P48775 whole entry): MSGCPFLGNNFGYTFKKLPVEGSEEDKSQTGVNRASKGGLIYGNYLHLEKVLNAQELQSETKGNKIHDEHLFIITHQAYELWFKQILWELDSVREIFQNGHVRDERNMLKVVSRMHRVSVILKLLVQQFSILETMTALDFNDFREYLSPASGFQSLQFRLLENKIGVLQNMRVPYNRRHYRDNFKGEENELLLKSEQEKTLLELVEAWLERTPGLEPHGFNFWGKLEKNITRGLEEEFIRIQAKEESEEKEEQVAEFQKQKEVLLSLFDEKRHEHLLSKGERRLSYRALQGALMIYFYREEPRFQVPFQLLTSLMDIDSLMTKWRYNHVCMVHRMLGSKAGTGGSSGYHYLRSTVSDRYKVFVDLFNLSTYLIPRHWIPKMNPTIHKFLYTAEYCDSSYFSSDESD
The series can be described thus: Assay for TDO2 enzymatic activity determination. In kind it is biochemical. The following applies: human recombinant TDO2, L-Trp 1 mM, room temperature one hour, kynurenine absorbance at 480 nm. As for the experimental part:
To measure the TDO2 activity, the reaction mixture contained (final concentrations) potassium phosphate buffer (50 mM, pH 7.5), ascorbic acid (0.25 M), methylene blue (0.125 μM), catalase (40 units/mL, from bovine liver, Sigma), and human recombinant TDO2 enzyme (prepared as described in Dolusic et al. J. Med. Chem.; 2011, 54, 5320-5334; 0.9 μg) without or with the compounds of the present invention embodiments at the indicated concentrations (total volume 112.5 μL). The reaction was initiated by the addition of 37.5 μL of L-Trp (final concentration 1 mM) at room temperature. The reaction was conducted at room temperature during one hour and stopped by the addition of 30 μL of 30% (w/v) trichloroacetic acid.
To convert N-formylkynurenine into kynurenine, the reaction mixture was incubated at 65° C. for 30 min. Then 150 μL of the reaction mixture was mixed with 120 μL, of 2.5% (w/v) 4-(dimethylamino)-benzaldehyde in acetic acid and incubated for 5 min at room temperature. Kynurenine concentrations were determined by measuring the absorbance at 480 nm. A standard curve was made with pure kynurenine. The TDO activity was measured as described above using ten serial concentrations of certain embodiments of the compounds of the present invention. Data were fitted using the Prism software (GraphPad Software, Inc.).

The target in series [2] is T2, murine mastocytoma P815 cells overexpressing hTDO2 (Homo sapiens, UniProt P48775).
T2 construct: expressed in transfected cells; host or cells: murine mastocytoma P815 cells
T2 sequence (P48775 whole entry): as above
The series can be described thus: Cellular assay for TDO2 activity determination. In kind it is cell-based. The settings on record: P815 cells overexpressing hTDO2, overnight incubation at 37° C., kynurenine absorbance at 480 nm. How it is done: The assay was performed in 96-well flat bottom plates seeded with murine mastocytoma P815 cells overexpressing hTDO2 (prepared as described in Pilotte et al., PNAS, 2012, 109(7), 2497-2502), at a concentration of 5×10^4 cells/well in a final volume of 200 μL. To determine TDO or IDO activity, the cells were incubated overnight at 37° C. at 5% CO2 in IMDM (Invitrogen) supplemented with 2% FBS and 2% penicillin/streptomycin in the presence of the compounds of the present invention, at different concentrations.
The plates were then centrifuged 5 min at 1000 rpm, and 100 μL of the supernatant were collected in a conical plate, 30 uL of TCA 30% were added and a further centrifugated at 3000×g for 10 minutes. 100 μL of the supernatant were collected in a flat bottomed plate and 100 μL of 2% (w/v) 4-(dimethylamino)-benzaldehyde in acetic acid and incubated for 5 min at room temperature. Kynurenine concentrations were determined by measuring the absorbance at 480 nm. A standard curve was made with pure kynurenine. The TDO activity was measured as described above using ten serial concentrations of the compounds of the present invention. Data were fitted using the Prism software (GraphPad Software, Inc.).

The compound `CC(=O)NCCn1cc(-c2c[nH]c3cc(F)ccc23)cn1` [Example 21, N-(2-(4-(6-fluoro-1H-indol-3-yl)-1H-pyrazol-1-yl)ethyl)acetamide] showed a melting point of 179.5 to 180.8 °C. In series [1], the IC50 lay in the range of 1000 to 10000 nM.

Regarding `OCCn1cc(-c2c[nH]c3cc(F)ccc23)cn1` [Example 26, 2-(4-(6-fluoro-1H-indol-3-yl)-1H-pyrazol-1-yl)ethanol], the IC50 in series [1] and in series [2] was below 1000 nM throughout.

As for `Fc1ccc2c(-c3cnn(CCN4CCNCC4)c3)c[nH]c2c1` [Example 27, 6-fluoro-3-(1-(2-(piperazin-1-yl)ethyl)-1H-pyrazol-4-yl)-1H-indole], the IC50 in series [1] is 1000 to 10000 nM; in series [2], below 1000 nM.

As to `Fc1ccc2c(-c3cnn(CCN4CCCC4)c3)c[nH]c2c1` [Example 29, 6-fluoro-3-(1-(2-(pyrrolidin-1-yl)ethyl)-1H-pyrazol-4-yl)-1H-indole], the IC50 in series [1] was 1000 to 10000 nM; in series [2] it was below 1000 nM.

Regarding `CS(=O)(=O)CCn1cc(-c2c[nH]c3cc(F)c(F)cc23)cn1` [Example 32, 5,6-difluoro-3-(1-(2-(methylsulfonyl)ethyl)-1H-pyrazol-4-yl)-1H-indole], the melting point was 170.6 to 171.9 °C. Also, in series [1], the IC50 was in the range of 1000 to 10000 nM.

For `NC(=O)Cn1cc(-c2c[nH]c3cc(F)ccc23)cn1` [Example 38, 2-(4-(6-fluoro-1H-indol-3-yl)-1H-pyrazol-1-yl)acetamide], the half-maximal inhibitory concentration (IC50) in series [1] and in series [2] was 1000 to 10000 nM throughout.

In the case of `CNC(=O)Cn1cc(-c2c[nH]c3cc(F)ccc23)cn1` [Example 39, 2-(4-(6-fluoro-1H-indol-3-yl)-1H-pyrazol-1-yl)-N-methylacetamide], the IC50 in series [1] and in series [2] was 1000 to 10000 nM in each case.

On to `CN(C)C(=O)Cn1cc(-c2c[nH]c3cc(F)ccc23)cn1` [Example 40, 2-(4-(6-fluoro-1H-indol-3-yl)-1H-pyrazol-1-yl)-N,N-dimethylacetamide], for which the IC50 in series [1] and in series [2] was 1000 to 10000 nM throughout.

On to `Fc1ccc2c(-c3cnn(CC4CCNCC4)c3)c[nH]c2c1` [Example 43, 6-fluoro-3-(1-(piperidin-4-ylmethyl)-1H-pyrazol-4-yl)-1H-indole], for which the IC50 in series [1] and in series [2] was below 1000 nM each time.

Consider `FCCN1CCC(Cn2cc(-c3c[nH]c4cc(F)ccc34)cn2)CC1` [Example 46, 6-fluoro-3-(1-((1-(2-fluoroethyl)piperidin-4-yl)methyl)-1H-pyrazol-4-yl)-1H-indole], for which the IC50 in series [1] and in series [2] was below 1000 nM throughout.

Take `OCCN1CCC(Cn2cc(-c3c[nH]c4cc(F)ccc34)cn2)CC1` [Example 47, 2-(4-((4-(6-fluoro-1H-indol-3-yl)-1H-pyrazol-1-yl)methyl)piperidin-1-yl)ethanol]: the IC50 in series [1] is below 1000 nM; in series [2], 1000 to 10000 nM.

For the compound `OC(CN1CCC(Cn2cc(-c3c[nH]c4cc(F)ccc34)cn2)CC1)C(F)(F)F` (centres unmarked) [Example 48, 1,1,1-trifluoro-3-(4-((4-(6-fluoro-1H-indol-3-yl)-1H-pyrazol-1-yl)methyl)piperidin-1-yl)propan-2-ol], the IC50 in series [1] and in series [2] was below 1000 nM in each case.

Consider `CC(=O)N1CCC(Cn2cc(-c3c[nH]c4cc(F)ccc34)cn2)CC1` [Example 51, 1-(4-((4-(6-fluoro-1H-indol-3-yl)-1H-pyrazol-1-yl)methyl)piperidin-1-yl)ethanone], for which the IC50 in series [1] was 1000 to 10000 nM; in series [2], below 1000 nM.

In the case of `Fc1ccc2c(-c3cnn(CC4CCN(C5CC5)CC4)c3)c[nH]c2c1` [Example 52, 3-(1-((1-cyclopropylpiperidin-4-yl)methyl)-1H-pyrazol-4-yl)-6-fluoro-1H-indole], the IC50 in series [1] and in series [2] was below 1000 nM in each case.

For `CN1CCC(Cn2cc(-c3c[nH]c4cc(F)ccc34)cn2)CC1` [Example 53, 6-fluoro-3-(1-((1-methylpiperidin-4-yl)methyl)-1H-pyrazol-4-yl)-1H-indole], the half-maximal inhibitory concentration (IC50) in series [1] and in series [2] was below 1000 nM each time.

Take `CS(=O)(=O)N1CCC(Cn2cc(-c3c[nH]c4cc(F)ccc34)cn2)CC1` [Example 54, 6-fluoro-3-(1-((1-(methylsulfonyl)piperidin-4-yl)methyl)-1H-pyrazol-4-yl)-1H-indole]: the IC50 in series [1] and in series [2] was 1000 to 10000 nM in each case.

Regarding `NC(=O)[C@H]1C[C@@H](n2cc(-c3c[nH]c4cc(F)ccc34)cn2)C1` [Example 61, (1S,3R)-3-(4-(6-fluoro-1H-indol-3-yl)-1H-pyrazol-1-yl)cyclobutanecarboxamide], the 50% inhibitory concentration (IC50) in series [1] is 1000 to 10000 nM; in series [2] it was below 1000 nM.

Consider `NC(=O)[C@H]1C[C@H](n2cc(-c3c[nH]c4cc(F)ccc34)cn2)C1` [Example 62, (1R,3R)-3-(4-(6-fluoro-1H-indol-3-yl)-1H-pyrazol-1-yl)cyclobutanecarboxamide], for which the IC50 in series [1] and in series [2] was 1000 to 10000 nM each time.

`O[C@H]1CC[C@H](n2cc(-c3c[nH]c4cc(F)ccc34)cn2)CC1` [Example 69, (1R,4R)-4-(4-(6-fluoro-1H-indol-3-yl)-1H-pyrazol-1-yl)cyclohexanol]: the IC50 in series [1] and in series [2] was 1000 to 10000 nM throughout.

For `Fc1ccc2c(-c3cn[nH]c3)c[nH]c2c1` [Example 70, 6-fluoro-3-(1H-pyrazol-4-yl)-1H-indole], the IC50 in series [1] and in series [2] was below 1000 nM in each case.

On to `Fc1cc2[nH]cc(-c3cn[nH]c3)c2cc1F` [Example 71, 5,6-difluoro-3-(1H-pyrazol-4-yl)-1H-indole], for which the concentration for half-maximal inhibition (IC50) in series [1] and in series [2] was below 1000 nM in each case.

For `Cn1cc(-c2c[nH]c3cc(F)ccc23)cn1` [Example 73, 6-fluoro-3-(1-methyl-1H-pyrazol-4-yl)-1H-indole], the IC50 in series [1] and in series [2] was below 1000 nM throughout.

Consider `O=C(O)CCC(=O)N1CCC(n2cc(-c3c[nH]c4cc(F)ccc34)cn2)CC1` [Example 80, 4-(4-(4-(6-fluoro-1H-indol-3-yl)-1H-pyrazol-1-yl)piperidin-1-yl)-4-oxobutanoic acid], for which the melting point was 226 to 228 °C. The IC50 in series [1] lay in the range of 10000 to 100000 nM.

In turn, `CN(C)CC(=O)N1CCC(n2cc(-c3c[nH]c4cc(F)ccc34)cn2)CC1` [Example 83, 2-(dimethylamino)-1-(4-(4-(6-fluoro-1H-indol-3-yl)-1H-pyrazol-1-yl)piperidin-1-yl)ethanone] showed a melting point of 193.7 to 196.1 °C. Also, the 50% inhibitory concentration (IC50) in series [1] lay within 1000 to 10000 nM.

Regarding `COCC(=O)N1CCC(n2cc(-c3c[nH]c4cc(F)ccc34)cn2)CC1` [Example 85, 1-(4-(4-(6-fluoro-1H-indol-3-yl)-1H-pyrazol-1-yl)piperidin-1-yl)-2-methoxyethanone], the IC50 in series [1] and in series [2] was 1000 to 10000 nM throughout.

For the compound `Fc1ccc2c(-c3cnn(-c4cccnn4)c3)c[nH]c2c1` [Example 107, 6-fluoro-3-(1-(pyridazin-3-yl)-1H-pyrazol-4-yl)-1H-indole], the IC50 is 1000 to 10000 nM in series [1] and below 1000 nM in series [2].

With `Nc1ccc(-n2cc(-c3c[nH]c4cc(F)ccc34)cn2)nn1` [Example 109, 6-(4-(6-fluoro-1H-indol-3-yl)-1H-pyrazol-1-yl)pyridazin-3-amine], the IC50 in series [1] was 1000 to 10000 nM; in series [2] it was below 1000 nM.

`Fc1ccc2c(-c3cnn(-c4ccnnc4)c3)c[nH]c2c1` [Example 110, 6-fluoro-3-(1-(pyridazin-4-yl)-1H-pyrazol-4-yl)-1H-indole]: the IC50 in series [1] and in series [2] was 1000 to 10000 nM in each case.

On to `Fc1ccc2c(-c3cnn(-c4ccccn4)c3)c[nH]c2c1` [Example 111, 6-fluoro-3-(1-(pyridin-2-yl)-1H-pyrazol-4-yl)-1H-indole], for which the IC50 in series [1] and in series [2] was below 1000 nM throughout.

As for `Fc1ccc2c(-c3cnn(-c4cccnc4)c3)c[nH]c2c1` [Example 112, 6-fluoro-3-(1-(pyridin-3-yl)-1H-pyrazol-4-yl)-1H-indole], the IC50 in series [1] and in series [2] was below 1000 nM in each case.

Turning to `Fc1ccc2c(-c3cnn(-c4ccncc4)c3)c[nH]c2c1` [Example 113, 6-fluoro-3-(1-(pyridin-4-yl)-1H-pyrazol-4-yl)-1H-indole], the IC50 in series [1] and in series [2] was below 1000 nM throughout.
